The source of these data is ChEMBL document CHEMBL1201862, “PubChem BioAssay data set” (2004).

By AC50 is commonly meant the midpoint of the concentration-response curve, whichever way the signal moves. The EC50 is the concentration that produces a half-maximal response. As usually defined, the IC90 is the concentration at which the effect reaches the 90% level.

The nature of experiment [1]: Luminescence Cell-Based Dose Response HTS to Identify Inhibitors of 5'UTR Stem-Loop Driven Prion Protein mRNA Translation in H4 Neuroglioblastoma Cells. [Related pubchem assays: 1827 (Project Summary), 1813 (Primary HTS)]. In kind it is functional.
Experiment [2] can be described thus: inhibitors of SNCA 5'UTR-driven reporter translation, confirmation, H4 neuroglioma cells, luminescence (AID 1988). In kind it is functional, cell-based.
Experiment [3] is described as follows: inhibitors of firefly luciferase expression or activity, dose response, H4 neuroglioma cells, luminescence (AID 1990). In kind it is functional, cell-based.
Experiment [4] in a line: HepG2 cell cytotoxicity, dose response, cytotoxicity control, cherry-picked samples (AID 1159577). The class given is functional, cell-based.
The nature of experiment [5]: cytotoxicity in A549 cells, dose response, cytotoxicity control, cell-based, cherry-picked samples (AID 1053184). In kind it is functional.
Experiment [6] can be described thus: cytotoxicity in HEK293 cells, dose response, cytotoxicity control, cell-based, cherry-picked samples (AID 1053185). The class given is functional.
Experiment [7] is described as follows: P. falciparum Dd2 growth inhibitors, dose response, SYBR Green, cherry-picked samples (AID 1159567). In kind it is functional, cell-based.
The nature of experiment [8]: cytotoxicity in HepG2 cells, dose response, cytotoxicity control, cell-based, cherry-picked samples (AID 1053183). The class given is functional.
Experiment [9] addresses 1-phosphatidylinositol 4,5-bisphosphate phosphodiesterase gamma-1 (Homo sapiens, UniProt P19174). Description: Counterscreen for inhibitors of phospholipase C isozymes (PLC-B3): Fluorescence-based biochemical high throughput dose response assay to identify inhibitors of phospholipase C isozymes (PLC-gamma1).
Experiment [10] addresses Induced myeloid leukemia cell differentiation protein Mcl-1 (Homo sapiens, UniProt Q07820). The class given is functional.
The target in experiment [11] is T1, Small ubiquitin-related modifier 1 (Homo sapiens, UniProt P63165). As to the kind of experiment: inhibitors of SUMO1 partner interactions, dose response, biochemical, FRET (AID 624383). The note with it: read-out: IC50_Mean. The class given is functional.
T1 sequence (P63165 whole entry): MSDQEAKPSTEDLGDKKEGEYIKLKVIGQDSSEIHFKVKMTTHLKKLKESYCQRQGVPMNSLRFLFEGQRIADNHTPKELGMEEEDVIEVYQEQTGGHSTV
The target in experiment [12] is T2, Dual specificity protein phosphatase 3 (Homo sapiens, UniProt P51452). Description: VHR1 phosphatase inhibitors, primary screen, biochemical, absorbance, uHTS (AID 1654).
T2 sequence (P51452 whole entry): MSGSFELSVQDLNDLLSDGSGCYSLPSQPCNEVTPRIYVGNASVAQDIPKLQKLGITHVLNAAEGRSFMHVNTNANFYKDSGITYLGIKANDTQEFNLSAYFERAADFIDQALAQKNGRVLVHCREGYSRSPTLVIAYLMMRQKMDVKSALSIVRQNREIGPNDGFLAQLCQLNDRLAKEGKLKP
In experiment [13] the target is T3, Dual specificity protein phosphatase 6 (Rattus norvegicus, UniProt Q64346).
T3 sequence (Q64346 whole entry): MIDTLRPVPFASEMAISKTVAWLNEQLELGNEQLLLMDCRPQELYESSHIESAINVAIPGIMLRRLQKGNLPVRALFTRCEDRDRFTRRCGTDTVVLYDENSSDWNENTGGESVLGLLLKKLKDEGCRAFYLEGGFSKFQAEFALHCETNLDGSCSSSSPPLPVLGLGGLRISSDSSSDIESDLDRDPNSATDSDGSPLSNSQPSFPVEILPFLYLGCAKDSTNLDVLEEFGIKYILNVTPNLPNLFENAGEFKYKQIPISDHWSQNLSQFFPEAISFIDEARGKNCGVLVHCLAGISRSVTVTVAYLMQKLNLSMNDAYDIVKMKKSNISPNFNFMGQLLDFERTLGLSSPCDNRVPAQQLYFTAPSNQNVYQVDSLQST
As to the kind of experiment: MKP-3 phosphatase inhibitors, primary screen, biochemical, rat enzyme, in vitro (AID 425).

For experiment [14], the target named is T4, Bifunctional protein GlmU (Mycobacterium tuberculosis, UniProt P9WMN3).
T4 sequence (P9WMN3 whole entry): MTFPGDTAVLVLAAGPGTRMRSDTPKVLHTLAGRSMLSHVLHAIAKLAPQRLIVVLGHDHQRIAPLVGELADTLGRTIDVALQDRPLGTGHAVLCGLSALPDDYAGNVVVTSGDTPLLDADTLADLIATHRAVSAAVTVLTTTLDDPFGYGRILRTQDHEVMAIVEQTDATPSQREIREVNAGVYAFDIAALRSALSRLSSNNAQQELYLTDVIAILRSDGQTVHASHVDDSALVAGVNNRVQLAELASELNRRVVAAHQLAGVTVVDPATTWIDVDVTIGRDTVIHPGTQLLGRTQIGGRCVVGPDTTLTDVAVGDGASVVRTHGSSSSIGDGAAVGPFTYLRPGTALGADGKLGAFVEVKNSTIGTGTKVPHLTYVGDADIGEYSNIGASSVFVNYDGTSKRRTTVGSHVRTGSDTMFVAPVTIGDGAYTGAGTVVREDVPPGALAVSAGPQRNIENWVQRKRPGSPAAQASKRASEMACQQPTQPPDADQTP
As to the kind of experiment: Inhibitors of Mycobacterial Glucosamine-1-phosphate acetyl transferase (GlmU). Secondary screen. Further details: species or system Mycobacterium tuberculosis H37Rv.

Experiment [15] has as its target 1-phosphatidylinositol 4,5-bisphosphate phosphodiesterase beta-3 (Homo sapiens, UniProt Q01970). Description: Fluorescence-based biochemical high throughput dose response assay to identify inhibitors of phospholipase C isozymes (PLC-B3).
Experiment [16] concerns the target T2, Dual specificity protein phosphatase 3. As to the kind of experiment: VHR1 phosphatase inhibitors, biochemical (AID 1878).
The target of experiment [17] is Apoptotic protease-activating factor 1 (Homo sapiens, UniProt O14727). As to the kind of experiment: activation of Apaf-1 mediated apoptosis – fluorescent, uHTS hits, dose response (AID 588554). The class given is functional.
Apoptotic protease-activating factor 1, sequence (O14727 whole entry): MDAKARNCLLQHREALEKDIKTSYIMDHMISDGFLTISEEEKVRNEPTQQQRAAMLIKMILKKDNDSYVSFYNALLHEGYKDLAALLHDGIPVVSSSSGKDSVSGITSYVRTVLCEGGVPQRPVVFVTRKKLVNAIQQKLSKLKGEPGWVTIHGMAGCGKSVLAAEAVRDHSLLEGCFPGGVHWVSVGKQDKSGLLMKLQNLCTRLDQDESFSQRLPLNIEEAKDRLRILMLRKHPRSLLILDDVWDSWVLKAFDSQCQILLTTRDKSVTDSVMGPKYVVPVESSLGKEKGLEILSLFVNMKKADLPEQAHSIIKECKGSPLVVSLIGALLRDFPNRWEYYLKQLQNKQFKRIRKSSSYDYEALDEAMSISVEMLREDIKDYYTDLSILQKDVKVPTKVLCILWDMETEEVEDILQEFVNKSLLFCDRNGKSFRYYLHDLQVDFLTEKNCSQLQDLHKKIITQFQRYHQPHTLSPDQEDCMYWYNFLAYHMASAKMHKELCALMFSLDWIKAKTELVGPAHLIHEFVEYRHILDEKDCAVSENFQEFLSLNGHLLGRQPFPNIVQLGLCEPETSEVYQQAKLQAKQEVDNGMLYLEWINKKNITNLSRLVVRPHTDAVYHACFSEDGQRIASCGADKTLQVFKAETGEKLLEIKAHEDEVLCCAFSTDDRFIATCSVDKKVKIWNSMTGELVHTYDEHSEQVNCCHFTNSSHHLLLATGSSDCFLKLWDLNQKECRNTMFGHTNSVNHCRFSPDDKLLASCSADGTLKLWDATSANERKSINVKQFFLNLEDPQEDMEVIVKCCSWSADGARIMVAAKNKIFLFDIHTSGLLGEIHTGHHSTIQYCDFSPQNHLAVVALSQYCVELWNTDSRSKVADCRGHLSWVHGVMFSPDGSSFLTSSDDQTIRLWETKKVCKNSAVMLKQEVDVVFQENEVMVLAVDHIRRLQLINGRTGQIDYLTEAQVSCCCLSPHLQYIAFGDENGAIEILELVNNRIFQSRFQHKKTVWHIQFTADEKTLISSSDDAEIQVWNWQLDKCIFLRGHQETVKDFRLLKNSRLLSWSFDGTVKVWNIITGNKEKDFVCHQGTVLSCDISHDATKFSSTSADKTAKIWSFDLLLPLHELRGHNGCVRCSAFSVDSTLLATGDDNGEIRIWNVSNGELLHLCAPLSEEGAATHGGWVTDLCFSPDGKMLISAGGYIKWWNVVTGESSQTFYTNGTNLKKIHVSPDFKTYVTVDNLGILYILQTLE
Experiment [18] addresses T1, Small ubiquitin-related modifier 1. As to the kind of experiment: inhibitors of SUMO1 peptide binding, dose response, biochemical, fluorescence polarization, uHTS hits (AID 624382). In kind it is functional. The conditions noted are these: read-out: IC50_Mean. On the technique in general: Fluorescence polarisation rises when a labelled molecule tumbles more slowly, as on binding a larger partner.

Experiment [19] deals with NAD-dependent protein deacylase sirtuin-5, mitochondrial (Homo sapiens, UniProt Q9NXA8). Description: SIRT5 deacylase inhibitors, dose response, biochemical, fluorescence imaging, cherry-pick, set 6 (AID 720597).
NAD-dependent protein deacylase sirtuin-5, mitochondrial, sequence (Q9NXA8 whole entry): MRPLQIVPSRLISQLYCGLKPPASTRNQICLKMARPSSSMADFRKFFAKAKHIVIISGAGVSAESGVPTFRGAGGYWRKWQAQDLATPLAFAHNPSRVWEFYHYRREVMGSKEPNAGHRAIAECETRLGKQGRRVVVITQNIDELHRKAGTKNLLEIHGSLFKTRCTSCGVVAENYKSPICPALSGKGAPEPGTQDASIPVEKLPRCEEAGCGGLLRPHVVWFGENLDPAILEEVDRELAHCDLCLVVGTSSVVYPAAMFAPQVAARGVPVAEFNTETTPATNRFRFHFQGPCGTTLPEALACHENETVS
Experiment [20] in a line: HEK293T cell cytotoxicity, dose response, cytotoxicity control, CellTiter-Glo luminescence, dry powder, set 6 (AID 651949). The conditions noted are these: HEK293. The class given is functional, cell-based.
A short description of experiment [21]: cytotoxicity in HepG2 cells, dose response, cytotoxicity control, cell-based, plate reader, dry powder (AID 651947). In kind it is functional.
Experiment [22] can be described thus: inhibitors of non-replicating M. tuberculosis, dose response, luciferase, dry powder (AID 651620). In kind it is functional. The note with it: Mycobacterium tuberculosis.
A short description of experiment [23]: cytotoxicity in HeLa cells, dose response, cytotoxicity control, cell-based, plate reader, dry powder (AID 651946). In kind it is functional.
Experiment [24] in a line: inhibitors of non-replicating M. tuberculosis, dose response, luciferase, dry powder (AID 651619). The conditions noted are these: Mycobacterium tuberculosis. The class given is functional.

Activity calls are given as the source filed them.

1-phosphatidylinositol 4,5-bisphosphate phosphodiesterase gamma-1, sequence (P19174 whole entry): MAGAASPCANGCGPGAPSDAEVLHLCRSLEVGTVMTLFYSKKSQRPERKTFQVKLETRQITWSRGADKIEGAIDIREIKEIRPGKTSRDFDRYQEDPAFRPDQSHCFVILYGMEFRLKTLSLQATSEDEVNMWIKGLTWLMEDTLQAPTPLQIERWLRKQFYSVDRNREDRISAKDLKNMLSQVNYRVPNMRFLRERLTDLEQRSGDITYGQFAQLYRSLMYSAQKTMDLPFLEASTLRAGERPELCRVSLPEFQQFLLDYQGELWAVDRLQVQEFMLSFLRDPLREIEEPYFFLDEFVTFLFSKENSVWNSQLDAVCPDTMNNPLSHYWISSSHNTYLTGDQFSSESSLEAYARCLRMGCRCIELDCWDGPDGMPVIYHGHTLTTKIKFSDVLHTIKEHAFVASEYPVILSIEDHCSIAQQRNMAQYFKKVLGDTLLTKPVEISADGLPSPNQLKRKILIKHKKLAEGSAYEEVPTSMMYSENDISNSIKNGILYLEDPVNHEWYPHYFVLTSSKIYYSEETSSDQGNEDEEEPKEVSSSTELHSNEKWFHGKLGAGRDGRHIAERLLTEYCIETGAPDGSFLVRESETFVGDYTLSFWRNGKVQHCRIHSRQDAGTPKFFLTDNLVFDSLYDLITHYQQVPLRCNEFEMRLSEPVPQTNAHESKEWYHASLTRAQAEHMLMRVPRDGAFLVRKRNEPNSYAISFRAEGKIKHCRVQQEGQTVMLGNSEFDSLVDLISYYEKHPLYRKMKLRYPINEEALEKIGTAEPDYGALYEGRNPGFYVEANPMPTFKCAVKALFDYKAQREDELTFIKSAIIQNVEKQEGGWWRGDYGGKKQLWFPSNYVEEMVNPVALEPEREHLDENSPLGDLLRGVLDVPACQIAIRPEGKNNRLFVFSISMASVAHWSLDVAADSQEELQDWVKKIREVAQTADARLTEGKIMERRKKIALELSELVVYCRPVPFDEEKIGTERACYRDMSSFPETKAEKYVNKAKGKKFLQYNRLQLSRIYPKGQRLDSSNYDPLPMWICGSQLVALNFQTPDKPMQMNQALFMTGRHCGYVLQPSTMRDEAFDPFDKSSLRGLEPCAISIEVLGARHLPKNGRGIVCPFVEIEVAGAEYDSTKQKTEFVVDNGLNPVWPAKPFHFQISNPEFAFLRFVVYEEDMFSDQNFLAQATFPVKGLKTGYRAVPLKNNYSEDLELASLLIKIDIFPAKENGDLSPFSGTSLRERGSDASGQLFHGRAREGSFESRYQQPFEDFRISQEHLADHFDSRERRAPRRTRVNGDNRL
Induced myeloid leukemia cell differentiation protein Mcl-1, sequence (Q07820 whole entry): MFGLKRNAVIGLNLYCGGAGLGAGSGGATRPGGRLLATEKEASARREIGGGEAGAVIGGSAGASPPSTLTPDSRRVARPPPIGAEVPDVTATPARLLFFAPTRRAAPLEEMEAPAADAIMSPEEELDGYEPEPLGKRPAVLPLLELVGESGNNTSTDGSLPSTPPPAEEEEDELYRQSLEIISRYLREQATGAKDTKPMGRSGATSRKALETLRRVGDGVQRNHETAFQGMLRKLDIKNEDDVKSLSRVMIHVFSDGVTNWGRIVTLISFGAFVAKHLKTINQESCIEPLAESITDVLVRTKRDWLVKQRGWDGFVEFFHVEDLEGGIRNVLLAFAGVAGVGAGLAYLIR
1-phosphatidylinositol 4,5-bisphosphate phosphodiesterase beta-3, sequence (Q01970 whole entry): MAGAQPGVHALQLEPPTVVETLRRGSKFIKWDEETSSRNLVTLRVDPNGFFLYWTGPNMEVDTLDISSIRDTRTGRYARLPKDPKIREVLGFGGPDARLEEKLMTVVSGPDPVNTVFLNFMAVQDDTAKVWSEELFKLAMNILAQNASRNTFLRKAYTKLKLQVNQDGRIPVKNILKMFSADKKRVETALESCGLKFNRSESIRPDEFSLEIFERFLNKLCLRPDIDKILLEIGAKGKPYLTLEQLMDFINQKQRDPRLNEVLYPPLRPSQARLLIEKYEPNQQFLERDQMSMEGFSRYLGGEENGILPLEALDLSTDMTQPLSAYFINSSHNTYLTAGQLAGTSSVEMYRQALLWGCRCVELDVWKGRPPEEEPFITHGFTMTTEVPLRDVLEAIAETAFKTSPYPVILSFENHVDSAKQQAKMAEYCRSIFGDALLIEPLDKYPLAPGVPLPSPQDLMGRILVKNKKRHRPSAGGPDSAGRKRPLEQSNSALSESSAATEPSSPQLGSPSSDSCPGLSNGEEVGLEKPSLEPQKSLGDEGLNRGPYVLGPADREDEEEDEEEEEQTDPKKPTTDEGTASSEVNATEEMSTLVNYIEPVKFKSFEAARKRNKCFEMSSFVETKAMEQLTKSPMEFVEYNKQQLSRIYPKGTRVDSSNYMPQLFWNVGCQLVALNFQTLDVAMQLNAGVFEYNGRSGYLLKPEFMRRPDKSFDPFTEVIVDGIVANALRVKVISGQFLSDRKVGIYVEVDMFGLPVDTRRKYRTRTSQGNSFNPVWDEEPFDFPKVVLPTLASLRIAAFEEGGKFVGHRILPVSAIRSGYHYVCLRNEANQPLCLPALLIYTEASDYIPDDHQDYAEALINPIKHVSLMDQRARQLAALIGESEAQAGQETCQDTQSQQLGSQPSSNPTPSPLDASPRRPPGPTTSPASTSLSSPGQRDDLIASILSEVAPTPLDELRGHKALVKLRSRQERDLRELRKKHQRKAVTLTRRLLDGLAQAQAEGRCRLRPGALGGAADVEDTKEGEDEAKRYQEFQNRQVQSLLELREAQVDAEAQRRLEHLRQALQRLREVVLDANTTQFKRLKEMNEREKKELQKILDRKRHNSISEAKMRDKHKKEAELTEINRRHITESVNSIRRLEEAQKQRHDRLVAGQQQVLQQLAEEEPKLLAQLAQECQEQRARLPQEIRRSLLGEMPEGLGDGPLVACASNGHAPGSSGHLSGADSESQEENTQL

Consider `CCOc1ccccc1/N=c1\oc2cc(O)ccc2cc1C(=O)NCC1CCCO1` (stereo unspecified), for which the AC50 in the experiment “cells” was > 70 µM (inactive). For the same compound, the EC50 in [1], in [2] and in experiment [3] was > 120 µM (not active) throughout.
Regarding `C(=C\c1ccc([C@@H]2[C@@H]3CN(Cc4ccc5c(c4)OCO5)C[C@H]2N3)cc1)/c1ccccc1`, the AC50 was 9.8 µM (active) in experiment [4]; > 12 µM (inactive) in experiment [5]; 17 µM (active) in [6]; 6.09 µM (active) in [7]; 17.1 µM (active) in [8].
With `O=C(O)c1cccc(-c2ccc(/C=c3/sc4nc5ccccc5n4c3=O)o2)c1`, the IC50 in experiment [9] was > 122 µM (inactive); in experiment [10], 1.74 µM (active); in experiment [11], 8.7 µM (active); in [12], 4.98 µM (active); in [13], 118 µM (not active); in [14], 101 µM (active). The results for the IC50 in [15], in [16] and in experiment [18] were > 122 µM (inactive), 2.27 µM (active) and > 66.6 µM (inactive), respectively. Besides, in [17], the EC50 was 9.48 µM (active).
Regarding `COCCNC(=O)C[C@@H]1CC[C@H]2[C@H](COc3ccc(NC(=O)Nc4cccc(F)c4)cc3C(=O)N2C)O1`, in experiment [19], the AC50 was > 30 µM (inactive).
Consider `CS(=O)(=O)c1ccc(CSc2nnc(-c3ccccc3)o2)cc1`, for which the AC50 is 49 µM (active) in experiment [20] and 0.28 µM (active) in experiment [21].
For `Brc1ccc(-c2nnc(SCc3ccccn3)o2)cc1`, the IC90 in [22] and in experiment [24] was 4 µM (active) in each case. Also, the results for the AC50 in experiment [23] and in experiment [21] were > 52 µM (inactive) and 5.42 µM (active), respectively.
